Experimental findings from patent US7560482B2, “Inhibitors of plasmepsins” (The Johns Hopkins University, priority 2001, dated 2009) are described below.

Read-outs that look alike come from different tables or passages of the source.

Assay [1] addresses T1, plasmepsin II from Plasmodium falciparum (Plm II) (Plasmodium falciparum, UniProt P46925).
T1 construct: made in house; host or cells: Escherichia coli
Description: Plasmepsin II inhibition assay, hydrolysis of chromogenic substrate. Particulars: for discrimination factor / Cathepsin D selectivity: Plasmepsin II versus Cathepsin D, fold; for Discrimination Factor: Fold Selectivity for Plasmepsin II over Cathepsin D: ratio of the Ki for Cathepsin D to the Ki for Plasmepsin II. Format: biochemical. The method, then:
FIG. 7A-C. Inhibition of Plasmepsin II from Plasmodium falciparum by KNI-10033, KNI-10030 and KNI-10006 at 20° C. in 10 mM sodium citrate, 100 mM NaCl, 2% DMSO, pH 4.0. The inhibition constants are 3 nM, 11 nM and 0.5 rLM respectively.
(§1) The specific activity of plasmepsin II from Plasmodium falciparum (Plm II) cloned in and purified from Escherchia coli and commercially available human Cathepsin D were measured by following the hydrolysis of the chromogenic substrate Ala-Leu-Glu-Arg-Thr-nPhe-Phe-Ser-Phe-Pro-Thr-OH (California Peptide Research Inc., Napa, Calif.). The decrease in absorbance upon hydrolysis is monitored at 300 nm. Typical Plasmepsin II preparations hydrolyze chromogenic substrate at 4-5 s^−1 at 37° C. The inhibition assays were performed at 25° C. in 10 mM sodium formate, 2% DMSO, pH 4.0. These pH conditions mimic the conditions in the food vacuole of the parasite. […] Inhibition constants (Ki) for the inhibitors are obtained at the desired temperature and solvent conditions by measuring the rate of substrate hydrolysis at increasing amounts of inhibitors. Exemplary results from three compounds (KNI-10033, KNI-10030 and KNI-10006) are shown in FIG. 7A-C, and the results obtained with all KNI compounds tested are given in Table 1.

In assay [2] the target is T2, human Cathepsin D (Homo sapiens, UniProt P07339).
T2 construct: purchased
T2 sequence (P07339 65-412): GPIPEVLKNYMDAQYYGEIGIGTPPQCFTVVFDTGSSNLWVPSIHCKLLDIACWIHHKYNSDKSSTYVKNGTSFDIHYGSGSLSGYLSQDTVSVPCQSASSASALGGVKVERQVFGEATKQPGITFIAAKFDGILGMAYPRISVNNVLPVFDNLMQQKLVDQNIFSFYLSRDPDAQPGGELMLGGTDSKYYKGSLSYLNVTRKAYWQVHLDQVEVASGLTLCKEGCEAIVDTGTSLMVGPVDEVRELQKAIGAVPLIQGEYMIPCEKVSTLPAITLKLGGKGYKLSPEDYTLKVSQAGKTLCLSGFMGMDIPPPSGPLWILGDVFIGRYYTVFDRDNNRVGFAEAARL
Description: Cathepsin D inhibition assay, hydrolysis of chromogenic substrate. Format: biochemical. As for the experimental part:
as §1

Setting [3] is: 25° C., 10 mM sodium formate, 2% DMSO, pH 4.0, fit to competitive inhibition, read-out: Ki Plm II.
Where [4] appears, read: Table 2, read-out: Ki Plasmepsin II.
Where [5] appears, read: 25° C., 10 mM sodium formate, 2% DMSO, pH 4.0, fit to competitive inhibition, read-out: Ki CatD.
The mark [6] stands for this setting: Table 2, read-out: Ki Cathepsin D.
Where [7] appears, read: 20° C., 10 mM sodium citrate, 100 mM NaCl, 2% DMSO, pH 4.0, read-out: inhibition constant, Plasmepsin II (FIG. 7).

T1 sequence (P46925 125-453): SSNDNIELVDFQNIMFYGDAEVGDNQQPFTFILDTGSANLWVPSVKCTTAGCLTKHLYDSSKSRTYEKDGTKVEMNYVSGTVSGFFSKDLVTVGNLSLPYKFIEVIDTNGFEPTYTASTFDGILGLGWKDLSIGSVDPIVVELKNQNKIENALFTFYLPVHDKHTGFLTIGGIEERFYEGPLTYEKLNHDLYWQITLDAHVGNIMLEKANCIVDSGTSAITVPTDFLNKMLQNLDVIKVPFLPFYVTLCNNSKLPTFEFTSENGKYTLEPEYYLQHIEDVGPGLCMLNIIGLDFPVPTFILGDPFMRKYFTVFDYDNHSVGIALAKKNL

Turning to `CSCC(NC(=O)COc1cccc2cnccc12)C(=O)NC(Cc1ccccc1)C(O)C(=O)N1CSC(C)(C)C1C(=O)NC(C)(C)C` (stereo not drawn) [KNI-227], the “inhibition constants against Plasmepsin II, in words” value (from here on “inhibition constants”) in assay [1] was “nanomolar and subnanomolar range”. The Ki came to 36 ± 10 nM in assay [1] (setting [3]); 36 nM in assay [1] (setting [4]); 30 nM in assay [1] (read-out: Ki against Plasmepsin II); 1770 ± 230 nM in assay [2] (setting [5]); 1770 nM in assay [2] (setting [6]). In assay [1], the “discrimination factor / Cathepsin D selectivity” value is recorded as 50. Besides, the “Discrimination Factor: Fold Selectivity for Plasmepsin II over Cathepsin D” value (shortened to “Discrimination Factor: Fold Selectivity”) in assay [1] is listed as around 49.
As for `CSC[C@H](NC(=O)COc1cccc2cnccc12)C(=O)N[C@@H](Cc1ccccc1)[C@H](O)C(=O)N1CSC[C@H]1C(=O)NC(C)(C)C` [KNI-272], the Ki stood at 1000 ± 200 nM in assay [1] (setting [3]) and 2580 ± 300 nM in assay [2] (setting [5]).
Taken in the same sequence, the figures for `CC(C)(C)NC(=O)[C@@H]1CSCN1C(=O)[C@@H](O)[C@H](Cc1ccccc1)NC(=O)CCC(=O)O` [KNI-357] were 96900 ± 19100 nM and 8120 ± 1500 nM.
`CC(C)(C)NC(=O)[C@@H]1CSCN1C(=O)[C@@H](O)[C@H](Cc1ccccc1)NC(=O)CC(C)(C)C(=O)O` [KNI-391]: the results for the Ki in assay [1] (setting [3]), in assay [2] (setting [5]) and in assay [2] (read-out: Ki for Cathepsin D) were 12700 ± 1500 nM, 1350 ± 80 nM and 1350 nM, respectively.
Take `CC(C)(C)NC(=O)[C@H]1N(C(=O)[C@@H](O)[C@H](Cc2ccccc2)NC(=O)CC(C)(C)C(=O)O)CSC1(C)C` [KNI-413]: the Ki in assay [1] (setting [3]) is 1390 ± 500 nM; in assay [2] (setting [5]), 7260 ± 1400 nM.
Taken in the same sequence, the figures for `CC(C)[C@H](NC(=O)COc1cccc2cnccc12)C(=O)N[C@@H](Cc1ccccc1)[C@H](O)C(=O)N1CSC(C)(C)[C@H]1C(=O)NC(C)(C)C` [KNI-492] were 340 ± 20 nM and 3700 ± 350 nM.
Taken in the same sequence, the figures for `CSC[C@H](NC(=O)COc1cccc2cnccc12)C(=O)N[C@@H](Cc1ccccc1)[C@@H](O)C(=O)N1CSC[C@H]1C(=O)NC(C)(C)C` [KNI-529] were 8090 ± 2600 nM and 8820 ± 2800 nM.
As to `CC(C(=O)O)C(C)C(=O)N[C@@H](Cc1ccccc1)[C@H](O)C(=O)N1CSC[C@H]1C(=O)NC(C)(C)C` (stereo partly drawn) [KNI-547], the Ki in assay [1] (setting [3]) turned out to be 30700 ± 8100 nM; in assay [2] (setting [5]), 18200 ± 3300 nM.
For `Cc1c(O)cccc1C(=O)N[C@@H](Cc1ccccc1)[C@H](O)C(=O)N1CSC(C)(C)[C@H]1C(=O)NC(C)(C)C` [KNI-577] the same measures were 590 ± 70 nM and 3440 ± 700 nM.
Consider `Cc1cccc(C)c1OCC(=O)NC(Cc1ccccc1)C(O)C(=O)N1CSC(C)(C)C1C(=O)NC(C)(C)C` (stereo not drawn) [KNI-727], for which the “inhibition constants” value in assay [1] was “nanomolar and subnanomolar range”. Also, the Ki in assay [1] (setting [3]) came to 70 ± 40 nM; in assay [2] (setting [5]) it was 1600 ± 300 nM; in assay [2] (setting [6]), 1600 nM. Besides, the “discrimination factor / Cathepsin D selectivity” value in assay [1] amounted to 22. Besides, the “Discrimination Factor: Fold Selectivity” value in assay [1] is around 23.
Consider `CC[C@H](C)[C@H](NC(=O)COc1cccc2cnccc12)C(=O)N[C@@H](Cc1ccccc1)[C@H](O)C(=O)N1CSC(C)(C)[C@H]1C(=O)NC(C)(C)C` [KNI-10001], for which the values for the Ki in assay [1] (setting [3]) and in assay [2] (setting [5]) were 359 ± 60 nM and 1610 ± 330 nM, respectively.
For `CC(C)[C@H](NC(=O)c1cc(=O)c2ccccc2o1)C(=O)N[C@@H](Cc1ccccc1)[C@H](O)C(=O)N1CSC(C)(C)[C@H]1C(=O)NC(C)(C)C` [KNI-10002] the same measures were 244 ± 20 nM and 112 ± 20 nM.
As to `CC(C)[C@H](NC(=O)c1ccccn1)C(=O)N[C@@H](Cc1ccccc1)[C@H](O)C(=O)N1CSC(C)(C)[C@H]1C(=O)NC(C)(C)C` [KNI-10003], the values for the Ki in assay [1] (setting [3]) and in assay [2] (setting [5]) were 1150 ± 190 nM and 970 ± 100 nM, respectively.
For `CC(C)[C@H](NC(=O)c1ccc2ccccc2n1)C(=O)N[C@@H](Cc1ccccc1)[C@H](O)C(=O)N1CSC(C)(C)[C@H]1C(=O)NC(C)(C)C` [KNI-10004] the same measures were 522 ± 50 nM and 290 ± 90 nM.
On to `CC(C)[C@H](NC(=O)COc1cccc(Nc2ccccc2)c1)C(=O)N[C@@H](Cc1ccccc1)[C@H](O)C(=O)N1CSC(C)(C)[C@H]1C(=O)NC(C)(C)C` [KNI-10005], for which the Ki in assay [1] (setting [3]) is 250 ± 190 nM; in assay [2] (setting [5]) it was 507 ± 100 nM.
`Cc1cccc(C)c1OCC(=O)N[C@@H](Cc1ccccc1)[C@H](O)C(=O)N1CSC(C)(C)[C@H]1C(=O)N[C@H]1c2ccccc2C[C@H]1O` [KNI-10006]: the “inhibition constants” value in assay [1] is “nanomolar and subnanomolar range”. The “discrimination factor / Cathepsin D selectivity” value in assay [1] was found to be 4. Also, the Ki in assay [1] (setting [4]) is 0.5 nM; in assay [1] (read-out: Ki (Plasmepsin II)), 0.5 nM; in assay [2] (setting [5]) it was 2 nM; in assay [2] (setting [6]), 2 nM. For the same molecule, the “Discrimination Factor: Fold Selectivity” value in assay [1] is 4.
On to `Cc1cccc(C)c1OCC(=O)N[C@@H](Cc1ccccc1)[C@H](O)C(=O)N1CSC(C)(C)[C@H]1C(=O)N[C@@H]1c2ccccc2C[C@@H]1O` [KNI-10007], for which the Ki was 71 ± 10 nM in assay [1] (setting [3]) and 806 ± 600 nM in assay [2] (setting [5]).
Taken in the same sequence, the figures for `COc1ccc(CNC(=O)[C@H]2N(C(=O)[C@@H](O)[C@H](Cc3ccccc3)NC(=O)COc3c(C)cccc3C)CSC2(C)C)cc1` [KNI-10008] were 169 ± 20 nM and 461 ± 140 nM.
Taken in the same sequence, the figures for `CC(C)[C@H](NC(=O)c1cc2ccccc2o1)C(=O)N[C@@H](Cc1ccccc1)[C@H](O)C(=O)N1CSC(C)(C)[C@H]1C(=O)NC(C)(C)C` [KNI-10009] were 2180 ± 250 nM and 515 ± 47 nM.
Taken in the same sequence, the figures for `COc1ccc(CCNC(=O)[C@H]2N(C(=O)[C@@H](O)[C@H](Cc3ccccc3)NC(=O)COc3c(C)cccc3C)CSC2(C)C)cc1` [KNI-10025] were 75 ± 10 nM and 655 ± 83 nM.
With `Cc1cccc(C)c1OCC(=O)N[C@@H](Cc1ccccc1)[C@H](O)C(=O)N1CSC(C)(C)[C@H]1C(=O)N[C@H]1CCc2ccccc21` [KNI-10026], the “inhibition constants” value in assay [1] is “nanomolar and subnanomolar range”. Besides, the Ki turned out to be 15 ± 5 nM in assay [1] (setting [3]), 15 nM in assay [1] (setting [4]), 105 ± 18 nM in assay [2] (setting [5]) and 105 nM in assay [2] (setting [6]). Also, the “Discrimination Factor: Fold Selectivity” value in assay [1] came out at 7.
For `CC(C)[C@H](NC(=O)c1cccc2ccccc12)C(=O)N[C@@H](Cc1ccccc1)[C@H](O)C(=O)N1CSC(C)(C)[C@H]1C(=O)NC(C)(C)C` [KNI-10027], the values for the Ki in assay [1] (setting [3]) and in assay [2] (setting [5]) were 1070 ± 90 nM and 1030 ± 200 nM, respectively.
For `CC(C)[C@H](NC(=O)Cc1cccc2ccccc12)C(=O)N[C@@H](Cc1ccccc1)[C@H](O)C(=O)N1CSC(C)(C)[C@H]1C(=O)NC(C)(C)C` [KNI-10028] the same measures were 1630 ± 157 nM and 690 ± 70 nM.
Take `CC(C)[C@H](NC(=O)Cc1ccc2ccccc2c1)C(=O)N[C@@H](Cc1ccccc1)[C@H](O)C(=O)N1CSC(C)(C)[C@H]1C(=O)NC(C)(C)C` [KNI-10029]: the Ki in assay [1] (setting [3]) was found to be 860 ± 90 nM; in assay [2] (setting [5]), 282 ± 39 nM.
As to `Cc1cccc(C)c1OCC(=O)N[C@@H](Cc1ccccc1)[C@H](O)C(=O)N1CSC(C)(C)[C@H]1C(=O)N[C@H](C)c1ccccc1` [KNI-10030], the Ki in assay [1] (setting [7]) came out at 11 nM; in assay [1] (setting [4]), 11 nM; in assay [2] (setting [5]), 111 ± 15 nM; in assay [2] (setting [6]), 111 nM. The “Discrimination Factor: Fold Selectivity” value in assay [1] is recorded as around 10.
With `Cc1cccc(C)c1OCC(=O)N[C@@H](Cc1ccccc1)[C@H](O)C(=O)N1CSC(C)(C)[C@H]1C(=O)Nc1cccc2ccccc12` [KNI-10031], the Ki in assay [1] (setting [3]) was 83 ± 7 nM; in assay [2] (setting [5]), 130 ± 19 nM.
For `CSCC[C@H](NC(=O)COc1cccc2cnccc12)C(=O)N[C@@H](Cc1ccccc1)[C@H](O)C(=O)N1CSC(C)(C)[C@H]1C(=O)NC(C)(C)C` [KNI-10032], the results for the Ki in assay [1] (setting [3]) and in assay [2] (setting [5]) were 535 ± 55 nM and 2620 ± 390 nM, respectively.
Turning to `CSC[C@H](NC(=O)COc1cccc2cnccc12)C(=O)N[C@@H](Cc1ccccc1)[C@H](O)C(=O)N1CSC(C)(C)[C@H]1C(=O)N[C@H]1Cc2ccccc2[C@H]1O` [KNI-10033], in assay [1], the “inhibition constants” value was “nanomolar and subnanomolar range”. The Ki stood at 3 nM in assay [1] (setting [7]), 3 nM in assay [1] (setting [4]), 40 ± 10 nM in assay [2] (setting [5]) and 40 nM in assay [2] (read-out: Ki for Cathepsin D). In addition, the “Discrimination Factor: Fold Selectivity” value in assay [1] is around 13.
As to `CSC[C@H](NC(=O)COc1c(C)cccc1C)C(=O)N[C@@H](Cc1ccccc1)[C@H](O)C(=O)N1CSC(C)(C)[C@H]1C(=O)NC(C)(C)C` [KNI-10041], the Ki in assay [1] (setting [3]) was 496 ± 69 nM; in assay [2] (setting [5]), 1670 ± 256 nM.
Taken in the same sequence, the figures for `CCC[C@H](NC(=O)COc1cccc2cnccc12)C(=O)N[C@@H](Cc1ccccc1)[C@H](O)C(=O)N1CSC(C)(C)[C@H]1C(=O)NC(C)(C)C` [KNI-10042] were 222 ± 17 nM and 2260 ± 166 nM.
